In patent publication US12202790B2, “Sulfonamide derivatives having selective Nox inhibiting activity” (GLUCOX BIOTECH AB, priority 2018, dated 2025):
≈ marks a conversion by molar mass, not a printed value.

Legend:
[1] = molecular target: xanthine oxidase (Bos taurus (Bovine), UniProt P80457); experiment: Amplex Red xanthine oxidase (XO) assay; assay type: biochemical; design: key: The sign “—” stands for “inactive”
Procedure: (§1) Reactive oxygen produced in whole cells or in membrane preparation of Nox1, Nox3, Nox4, Nox5 and xanthine oxidase and glucose oxidase were determined using Amplex Red as detection probe of formed H2O2. Amplex Red (10-acetyl-3,7-dihydroxyphenoxazine) in combination with HRP and co-factors reacts with H2O2 in a 1:1 stoichiometry to form a highly fluorescent resorufin excitated at 544 nm producing emission at 590 nm.
The assay was designed for Amplex Red analysis of production of hydrogen peroxide. Test compounds were incubated with 5 mU/ml bovine derived xanthine oxidase for 15 min at room temperature followed by the addition of substrate and detection mix (final concentrations of 0.2 U/ml HRP, 5 μM hypoxanthine, and 50 μM Amplex Red). As described by Hirano K et al., Antioxid Redox Signal 2015 10; 23:358-374, production of hydrogen peroxide was followed by fluorescence detection during 30 min at 37° C. in a plate reader that use excitation at 544 nm producing emission at 590 nm.

[2] = Determination of solubility; assay type: physicochemical; details: 10 mM potassium phosphate buffer, aqueous buffer, kinetic from dmso stock; 10 mM potassium phosphate pH 7.4, 24 h, room temperature; read-out: Kinetic solub.
Procedure: Two μl of test compound (from 10 mM DMSO stock) were diluted 100× in 10 mM potassium phosphate pH 7.4 in a HPLC glass vial, sealed and incubated for 24 h under rotation (900 rpm) at room temperature. After the incubation 150 μl were transferred to conical glass inserts and centrifuged for 20 min at 10,000×g. Two μl of the supernatant were transferred to a 96-well plate, diluted 100× with acetonitrile/H2O (60/40, vol/vol) and analyzed by LC-MS/MS.

[3] = molecular target: Nox2 (Homo sapiens (Human), UniProt P04839); experiment: Nox2 inhibition in human neutrophils, isoluminol-dependent chemiluminescence; assay type: cell-based; design: key to IC50 Nox2: The sign “—” stands for “inactive”; details: PMA stimulated human neutrophils
Sequence of Nox2 (P04839 2-570): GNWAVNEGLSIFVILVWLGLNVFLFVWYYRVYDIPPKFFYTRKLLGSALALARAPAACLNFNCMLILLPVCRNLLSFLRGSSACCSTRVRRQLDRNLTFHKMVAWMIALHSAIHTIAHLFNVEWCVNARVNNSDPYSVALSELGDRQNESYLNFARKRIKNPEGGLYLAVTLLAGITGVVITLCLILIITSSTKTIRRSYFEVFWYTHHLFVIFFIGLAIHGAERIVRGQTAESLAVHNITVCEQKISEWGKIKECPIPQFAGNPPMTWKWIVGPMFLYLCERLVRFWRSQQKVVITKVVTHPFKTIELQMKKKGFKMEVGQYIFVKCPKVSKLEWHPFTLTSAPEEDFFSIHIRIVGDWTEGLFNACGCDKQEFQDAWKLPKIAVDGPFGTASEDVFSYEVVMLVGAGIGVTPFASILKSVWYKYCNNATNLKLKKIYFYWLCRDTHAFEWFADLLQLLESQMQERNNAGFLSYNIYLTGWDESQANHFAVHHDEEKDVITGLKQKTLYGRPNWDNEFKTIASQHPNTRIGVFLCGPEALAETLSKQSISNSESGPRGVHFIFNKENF
Sequence of Nox2 (P13498 2-195 partner): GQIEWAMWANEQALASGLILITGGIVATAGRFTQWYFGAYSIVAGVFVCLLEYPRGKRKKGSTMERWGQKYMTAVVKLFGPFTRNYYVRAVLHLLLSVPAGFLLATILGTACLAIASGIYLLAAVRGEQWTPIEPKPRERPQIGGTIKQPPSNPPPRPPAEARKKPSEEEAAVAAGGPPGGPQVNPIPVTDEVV
Procedure: (§2) HEK293 overexpressing Nox4 (CJ Nox4) cells were purchased from Redoxis, Lund, Sweden. HEK 293 cells expressing Nox5, Nox3 (HEK TRex) and CHO cells expressing Nox1, were a kind gift from Vincent Jaque Center Medical Universitaire, Geneva, Switzerland. Nox2 expressed in isolated neutrophils were isolated from whole blood (human), as previously described (Anvari E, et al., Free Radic Res 2015; 49:1308-1318).
Compounds of the invention were tested for selectivity against Nox2 in isolated neutrophils from whole blood (human), as previously described (Anvari E, et al., vide supra). Levels of ROS from PMA stimulated primary human neutrophils were measured using isoluminol-dependent chemiluminescence. […] The dye is excited by ROS and the light emitted when the excited molecules return to the ground state, relative to the amount of released ROS, is measured. This reaction is catalyzed and amplified by peroxidases. […] Compounds of the invention and GKT136901 were diluted at 4× working concentration and titrated from 100 μM to 0.006 μM in 1:4 steps as final concentrations. DPI was diluted in isoluminol buffer at 4× working concentration titrated from 10 μM to 0.0006 μM as final concentrations. PMA was diluted in isoluminol buffer at 4× working concentration for a final concentration of 30 ng/ml. […] Luminescence was detected using FluoStar Optima (BMG, Labtech). The isoluminol buffer was prepared immediately prior to addition to test plate. The buffer contained HRP fraction with or without PMA (30 ng/ml). Stock solutions at 6 μg/ml (PMA in HBSS), 3 μg/ml (PMA in DMSO) and 24 mM (DPI) were used and further diluted at the day of analysis to 4× working concentrations in HBSS with or without DMSO.

[4] = tested on: Nox1, Nox2, Nox3 and Nox5; experiment: Activity on Nox1, Nox2, Nox3 and Nox5; assay type: cell-based
Procedure: as §1
(§3) Adherent cells (CHO, HEK) were collected by trypsinization, centrifuged, washed with HBSS, counted, and resuspended in HBSS. Cells were seeded in 96-well black flat bottom plates at a density of 50,000-100,000 cells/well. All compounds were dissolved in DMSO and concentrations ranging from 0.003 to 200 μM were tested in Nox cellular assays with a final concentration of DMSO of 1%. Cells were incubated at 37° C. with the compounds for 30 minutes before measurement. Cells expressing Nox1 and Nox2 were activated with the PKC activator PMA (0.1 μM). Nox5 was activated with the Ca2+ ionophore ionomycin (1 μM) and further enforced with PMA. The CJ HEK 293 cells overexpressed Nox4 constitutively. In the HTS screen HEK 293 TRex was used and tetracycline (1 mg/ml) was added 18 h before measurement to induce Nox4 expression. Production of hydrogen peroxide by Nox in intact cells was measured using Amplex Red fluorescence as described by Jaquet V, et al., Br J Pharmacol 2011; 164:507-520. […] Fluorescence was read in a fluorescence plate reader at 37° C. every minute between 30-60 minutes.
Compounds of the invention were tested for selectivity against Nox2 in isolated neutrophils from whole blood (human), as previously described (Anvari E, et al., vide supra). Levels of ROS from PMA stimulated primary human neutrophils were measured using isoluminol-dependent chemiluminescence. […] The dye is excited by ROS and the light emitted when the excited molecules return to the ground state, relative to the amount of released ROS, is measured. […] Luminescence was detected using FluoStar Optima (BMG, Labtech). […]

[5] = molecular target: Nox1 expressing CHO cells (Homo sapiens (Human), UniProt Q9Y5S8); experiment: Oxygen consumption in Nox1 expressing CHO cells; assay type: cell-based
Sequence of Nox1 expressing CHO cells (Q9Y5S8 whole entry): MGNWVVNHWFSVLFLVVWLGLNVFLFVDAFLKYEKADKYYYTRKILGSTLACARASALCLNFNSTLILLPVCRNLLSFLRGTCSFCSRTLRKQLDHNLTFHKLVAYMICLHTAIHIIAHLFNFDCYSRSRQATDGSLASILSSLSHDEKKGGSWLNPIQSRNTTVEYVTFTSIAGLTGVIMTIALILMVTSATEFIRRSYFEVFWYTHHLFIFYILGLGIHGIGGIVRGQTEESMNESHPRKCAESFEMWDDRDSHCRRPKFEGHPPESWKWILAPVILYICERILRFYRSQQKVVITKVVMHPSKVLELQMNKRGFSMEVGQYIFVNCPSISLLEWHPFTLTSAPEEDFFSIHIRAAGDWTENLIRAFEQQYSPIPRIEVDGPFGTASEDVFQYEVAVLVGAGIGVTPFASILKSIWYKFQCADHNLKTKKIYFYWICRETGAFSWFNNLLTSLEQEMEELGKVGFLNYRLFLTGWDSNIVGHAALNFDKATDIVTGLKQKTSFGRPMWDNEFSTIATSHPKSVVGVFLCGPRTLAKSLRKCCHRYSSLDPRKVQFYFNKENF
Sequence of Nox1 expressing CHO cells (P13498 2-195 partner): as the sequence (P13498 2-195 partner) above

[6] = molecular target: glucose oxidase (Aspergillus niger, UniProt P13006); experiment: Amplex Red and glucose oxidase (GO) assay; assay type: biochemical; design: key: The sign “—” stands for “inactive”
Sequence of glucose oxidase (P13006 17-605): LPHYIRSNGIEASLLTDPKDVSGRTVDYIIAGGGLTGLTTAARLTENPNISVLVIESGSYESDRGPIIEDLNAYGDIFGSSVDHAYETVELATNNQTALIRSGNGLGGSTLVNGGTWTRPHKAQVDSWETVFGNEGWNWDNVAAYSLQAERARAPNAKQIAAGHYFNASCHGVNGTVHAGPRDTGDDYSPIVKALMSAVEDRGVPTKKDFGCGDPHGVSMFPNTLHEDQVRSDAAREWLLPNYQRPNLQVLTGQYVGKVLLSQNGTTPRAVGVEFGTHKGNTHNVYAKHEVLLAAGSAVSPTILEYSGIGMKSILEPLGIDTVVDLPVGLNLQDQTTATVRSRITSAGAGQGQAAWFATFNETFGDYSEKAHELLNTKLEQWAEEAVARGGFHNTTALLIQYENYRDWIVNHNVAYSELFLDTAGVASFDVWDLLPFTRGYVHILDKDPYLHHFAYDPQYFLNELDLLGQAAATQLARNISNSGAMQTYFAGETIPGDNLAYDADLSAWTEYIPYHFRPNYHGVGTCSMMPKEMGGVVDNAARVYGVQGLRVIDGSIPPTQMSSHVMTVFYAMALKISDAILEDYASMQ
Procedure: as §1
The assay was performed using a modified form of Invitrogen Amplex™ Red Glucose/Glucose Oxidase Assay Kit Cat no: A22189. Test compounds were incubated with 5 mU/ml glucose oxidase for 30 min at room temperature, followed by the addition of substrate and detection mix (final concentrations of 0.1 U/ml HRP, 10 mM glucose, 50 μM Amplex Red in phosphate buffer pH 7.4) and then fluorescence detection of hydrogen peroxide production was performed during 30 min at 37° C. in a plate reader that use excitation at 544 nm producing emission at 590 nm.

[7] = molecular target: Nox3 (Homo sapiens (Human), UniProt Q9HBY0); experiment: Amplex Red assay of Nox3 expressing HEK cells; assay type: cell-based; design: key: The sign “—” stands for “inactive”
Sequence of Nox3 (Q9HBY0 whole entry): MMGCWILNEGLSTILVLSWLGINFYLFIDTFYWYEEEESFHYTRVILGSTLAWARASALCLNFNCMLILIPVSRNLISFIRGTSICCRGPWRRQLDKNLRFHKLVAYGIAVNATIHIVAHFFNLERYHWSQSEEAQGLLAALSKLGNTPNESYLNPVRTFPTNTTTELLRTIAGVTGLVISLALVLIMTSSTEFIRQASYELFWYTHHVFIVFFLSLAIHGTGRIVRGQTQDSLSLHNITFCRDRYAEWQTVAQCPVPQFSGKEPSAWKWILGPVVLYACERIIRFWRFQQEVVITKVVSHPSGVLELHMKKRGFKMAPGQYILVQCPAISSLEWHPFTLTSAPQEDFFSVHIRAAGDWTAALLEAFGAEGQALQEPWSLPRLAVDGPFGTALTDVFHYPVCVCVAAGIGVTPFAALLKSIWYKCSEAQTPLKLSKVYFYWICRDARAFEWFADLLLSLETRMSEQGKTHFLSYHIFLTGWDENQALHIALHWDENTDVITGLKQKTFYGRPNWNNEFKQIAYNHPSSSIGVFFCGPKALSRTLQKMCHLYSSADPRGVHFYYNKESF
Sequence of Nox3 (P13498 2-195 partner): as the sequence (P13498 2-195 partner) above
Source text: as §2
HEK293T cells expressing tetracycline-inducible human (Nox3 or Nox4) and HEK293 cells stably expressing human Nox5 were generated as described previously (Serrander et al., 2007a,b). HEK cells were cultured in Dulbecco's modified Eagle medium (DMEM) with 4.5 g/l glucose, supplemented with FBS (10%), penicillin (100 U/ml) and streptomycin […] at 37° C. in air with 5% CO2.
as §1
as §3, with “Nox5 was activated with the Ca2+ ionophore ionomycin (1 μM) and further enforced with PMA. The CJ HEK 293 cells overexpressed Nox4 constitutively. In the HTS screen HEK 293 TRex was used and tetracycline (1 mg/ml) was added 18 h before measurement to induce Nox4 expression.” left out

Sequence of xanthine oxidase (P80457 whole entry): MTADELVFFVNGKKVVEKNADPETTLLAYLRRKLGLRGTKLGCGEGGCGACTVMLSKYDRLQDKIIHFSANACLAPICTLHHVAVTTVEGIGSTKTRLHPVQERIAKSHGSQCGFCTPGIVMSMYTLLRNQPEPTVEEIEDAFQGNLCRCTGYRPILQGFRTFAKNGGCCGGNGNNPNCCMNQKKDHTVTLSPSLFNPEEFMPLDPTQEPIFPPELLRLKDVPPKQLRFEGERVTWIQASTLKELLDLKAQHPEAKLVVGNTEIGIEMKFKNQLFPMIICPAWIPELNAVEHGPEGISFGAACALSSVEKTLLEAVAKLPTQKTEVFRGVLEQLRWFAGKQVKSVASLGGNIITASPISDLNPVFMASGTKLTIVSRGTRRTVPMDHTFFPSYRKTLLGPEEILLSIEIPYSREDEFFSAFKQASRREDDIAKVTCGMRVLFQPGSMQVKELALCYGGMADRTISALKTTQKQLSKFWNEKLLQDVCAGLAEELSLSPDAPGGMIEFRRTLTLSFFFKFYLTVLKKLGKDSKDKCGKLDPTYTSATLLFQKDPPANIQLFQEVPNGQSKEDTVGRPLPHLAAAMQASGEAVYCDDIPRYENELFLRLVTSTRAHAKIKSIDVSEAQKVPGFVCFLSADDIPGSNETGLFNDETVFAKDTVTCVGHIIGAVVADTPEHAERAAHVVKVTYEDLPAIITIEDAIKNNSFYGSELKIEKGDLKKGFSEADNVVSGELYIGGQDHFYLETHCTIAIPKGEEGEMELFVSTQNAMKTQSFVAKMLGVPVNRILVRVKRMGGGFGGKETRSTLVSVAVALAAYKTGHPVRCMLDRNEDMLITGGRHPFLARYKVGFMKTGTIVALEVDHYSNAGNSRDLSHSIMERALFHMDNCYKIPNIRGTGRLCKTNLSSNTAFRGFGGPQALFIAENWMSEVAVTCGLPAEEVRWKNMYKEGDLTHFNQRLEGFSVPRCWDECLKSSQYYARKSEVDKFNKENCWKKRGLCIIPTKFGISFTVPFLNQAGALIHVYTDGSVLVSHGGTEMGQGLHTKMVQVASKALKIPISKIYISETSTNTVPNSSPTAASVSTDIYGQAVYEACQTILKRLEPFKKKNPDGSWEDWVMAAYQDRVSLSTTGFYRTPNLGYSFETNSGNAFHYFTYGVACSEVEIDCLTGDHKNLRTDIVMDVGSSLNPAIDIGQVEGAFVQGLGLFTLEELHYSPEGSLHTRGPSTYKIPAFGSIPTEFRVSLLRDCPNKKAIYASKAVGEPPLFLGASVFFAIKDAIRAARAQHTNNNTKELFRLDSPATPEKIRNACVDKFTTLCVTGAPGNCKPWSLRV

IC50 XO [1]	solubility kinetic at 24 h [2] [µM]	IC50 [3] [nM]	Structure (SMILES)	IC50 Nox2 [3]	Activity on Nox1, Nox2, Nox3 and Nox5 [4]	Inhibition of oxygen consumption in Nox1 expressing CHO cells [5]	IC50 GO [6]	IC50 Nox3 [7]
—	4.5 (≈ 1.99 µg/mL)		Cc1ccccc1C(F)CNS(=O)(=O)c1c(Cl)cc(Br)cc1Cl (racemic) [Example 35, 4-bromo-2,6-dichloro-N-[2-fluoro-2-(2-methylphenyl)ethyl]benzene-1-sulfonamide]	—				
—	> 100	900	Cc1cc(C)c(S(=O)(=O)NCCc2ccccc2O)c(C)c1 [Example 37, N-[2-(2-hydroxyphenyl)ethyl]-2,4,6-trimethylbenzene-1-sulfonamide]					
—	77 (≈ 32.7 µg/mL)	1500	O=S(=O)(NCCc1ccccc1O)c1c(Cl)cc(Br)cc1Cl [Example 38, 4-bromo-2,6-dichloro-N-[2-(2-hydroxyphenyl)ethyl]benzenesulfonamide]					
—	94 (≈ 33.4 µg/mL)	900	Cc1cc(Cl)c(S(=O)(=O)NCCc2ccccc2O)c(C)c1O [Example 44, 6-chloro-3-hydroxy-N-[2-(2-hydroxyphenyl)ethyl]-2,4-dimethyl-benzenesulfonamide]					
—	16 (≈ 5.66 µg/mL)		COc1cc(C)c(S(=O)(=O)NCCc2ccccc2Cl)c(C)c1 [Example 46, N-[2-(2-chlorophenyl)ethyl]-4-methoxy-2,6-dimethyl-benzenesulfonamide]	—				
—	> 100	1000	COc1cc(C)c(S(=O)(=O)NCCc2ccccc2O)c(C)c1 [Example 47, N-[2-(2-hydroxyphenyl)ethyl]-4-methoxy-2,6-dimethyl-benzenesulfonamide]					
—	97 (≈ 31.2 µg/mL)	870	Cc1cc(O)cc(C)c1S(=O)(=O)NCCc1ccccc1O [Example 48, 4-hydroxy-N-[2-(2-hydroxyphenyl)ethyl]-2,6-dimethyl-benzenesulfonamide]					

Structure (SMILES)	IC50 XO [1]	solubility kinetic at 24 h [2] [µM]	IC50 [3] [nM]	IC50 Nox2 [3]	Activity on Nox1, Nox2, Nox3 and Nox5 [4]	Inhibition of oxygen consumption in Nox1 expressing CHO cells [5]	IC50 GO [6]	IC50 Nox3 [7]
Cc1ccccc1CCNS(=O)(=O)c1c(C)cccc1Cl [Example 11, 2-chloro-6-methyl-N-[2-(2-methylphenyl)ethyl]benzene-1-sulfonamide]	—			—	inactive	No	—	—
Cc1ccccc1CCNS(=O)(=O)c1c(Cl)cc(Br)cc1Cl [Example 17, 4-bromo-2,6-dichloro-N-[2-(2-methylphenyl)ethyl]benzene-1-sulfonamide]	—	0.16 (≈ 0.0677 µg/mL)		—	inactive	No	—	—
O=S(=O)(NCCc1ccccc1Cl)c1c(Cl)cc(C2CC2)cc1Cl [Example 26, 2,6-dichloro-N-[2-(2-chlorophenyl)ethyl]-4-cyclopropylbenzene-1-sulfonamide]	—			—	inactive	No	—	—
